Results as given in patent US9446026B2, “Ocular formulations for drug-delivery to the posterior segment of the eye” (PanOptica, Inc., priority 2013, dated 2016).
Like-named read-outs stand apart in the source and are kept apart here.

Experiments:
[1] = system: pathologic retinal and choroidal neovascularization; assay: Topical ocular delivery in rodent models of retinal and choroidal neovascularization; assay type: in vivo
[2] = Solubility of Compound-I in cyclodextrin ophthalmic solution; assay type: physicochemical; settings: HP-β-CD at ≥1:6 molar ratio or SBE-β-CD at ≥1:2 ratio
human tumor xenographs = assay: Human tumor xenographs in athymic mice; assay type: in vivo; settings: systemic administration
[3] = Ocular tissue concentrations, 0.3% Compound-I Tris-based suspension twice daily 30 days; assay type: in vivo, Dutch-Belted rabbits; settings: Dutch-Belted, rabbit, topical
FGFR-4 = FGFR-4 (Homo sapiens (Human), UniProt P22455); assay: In vitro inhibition of tyrosine kinases; assay type: biochemical
FGFR-4, sequence (P22455 22-802): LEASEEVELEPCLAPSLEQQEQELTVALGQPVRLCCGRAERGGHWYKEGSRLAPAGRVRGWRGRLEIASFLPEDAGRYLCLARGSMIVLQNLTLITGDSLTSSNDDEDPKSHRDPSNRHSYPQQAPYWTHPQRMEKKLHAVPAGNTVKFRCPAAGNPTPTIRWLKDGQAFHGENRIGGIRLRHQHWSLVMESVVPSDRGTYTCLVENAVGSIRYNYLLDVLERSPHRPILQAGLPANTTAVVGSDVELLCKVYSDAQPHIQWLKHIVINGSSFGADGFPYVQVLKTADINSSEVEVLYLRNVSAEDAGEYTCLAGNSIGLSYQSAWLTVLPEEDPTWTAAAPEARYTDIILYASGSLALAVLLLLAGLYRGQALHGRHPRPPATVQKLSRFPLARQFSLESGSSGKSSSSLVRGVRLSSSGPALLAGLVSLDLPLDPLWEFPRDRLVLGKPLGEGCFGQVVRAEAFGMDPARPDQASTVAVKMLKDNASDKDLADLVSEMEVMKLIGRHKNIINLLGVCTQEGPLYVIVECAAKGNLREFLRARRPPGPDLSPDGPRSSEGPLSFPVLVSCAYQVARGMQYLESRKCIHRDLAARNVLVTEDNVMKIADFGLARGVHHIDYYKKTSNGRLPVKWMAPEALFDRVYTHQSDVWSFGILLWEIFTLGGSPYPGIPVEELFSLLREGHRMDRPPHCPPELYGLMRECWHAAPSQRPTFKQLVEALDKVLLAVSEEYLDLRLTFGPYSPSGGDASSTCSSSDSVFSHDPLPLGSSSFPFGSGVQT

[4] = pKa (water) of Compound-I drug substance; assay type: physicochemical
Description: (§1) The embodiments provide three formulations of Compound-I or its free base—the Formula II compound.

[5] = Solubility of Compound-I drug substance; assay type: physicochemical
Description: as §1

[6] = parameters: species or system Dutch-belted rabbits; settings: rabbit, in vivo
[7] = PK with topical ocular Compound-I in sodium phosphate-based Gel Drop; assay type: in vivo; settings: Dutch-belted rabbits
Description: The Gel Drop of Compound-I was applied to eyes of Dutch-belted rabbits.
The Gel Drop formulations (listed in Table 6) differed in several aspects, such as API concentration, sodium phosphate concentration, presence or absence of tonicity (glycerin) or preservative (benzalkoniumchloride/BAK) agents, solubilizing surfactants (polysorbate 80, tyloxapol, and/or poloxamer), and pH.

pathologic angiogenesis = assay: Systemic administration in murine cornea and rat growth plate models; assay type: in vivo
[8] = Ocular toxicology: clinical ophthalmic and microscopic examinations; assay type: in vivo, Dutch-Belted rabbits
Description: Retinal function was normal in all test article and vehicle treated groups during full-field electroretinograms performed in rabbits.

KDR (VEGFR-2) = KDR (VEGFR-2) (Homo sapiens (Human), UniProt P35968); assay: In vitro inhibition of tyrosine kinases; assay type: biochemical; settings: 300 nM (170.67 ng/mL)
KDR (VEGFR-2), sequence (P35968 20-1356): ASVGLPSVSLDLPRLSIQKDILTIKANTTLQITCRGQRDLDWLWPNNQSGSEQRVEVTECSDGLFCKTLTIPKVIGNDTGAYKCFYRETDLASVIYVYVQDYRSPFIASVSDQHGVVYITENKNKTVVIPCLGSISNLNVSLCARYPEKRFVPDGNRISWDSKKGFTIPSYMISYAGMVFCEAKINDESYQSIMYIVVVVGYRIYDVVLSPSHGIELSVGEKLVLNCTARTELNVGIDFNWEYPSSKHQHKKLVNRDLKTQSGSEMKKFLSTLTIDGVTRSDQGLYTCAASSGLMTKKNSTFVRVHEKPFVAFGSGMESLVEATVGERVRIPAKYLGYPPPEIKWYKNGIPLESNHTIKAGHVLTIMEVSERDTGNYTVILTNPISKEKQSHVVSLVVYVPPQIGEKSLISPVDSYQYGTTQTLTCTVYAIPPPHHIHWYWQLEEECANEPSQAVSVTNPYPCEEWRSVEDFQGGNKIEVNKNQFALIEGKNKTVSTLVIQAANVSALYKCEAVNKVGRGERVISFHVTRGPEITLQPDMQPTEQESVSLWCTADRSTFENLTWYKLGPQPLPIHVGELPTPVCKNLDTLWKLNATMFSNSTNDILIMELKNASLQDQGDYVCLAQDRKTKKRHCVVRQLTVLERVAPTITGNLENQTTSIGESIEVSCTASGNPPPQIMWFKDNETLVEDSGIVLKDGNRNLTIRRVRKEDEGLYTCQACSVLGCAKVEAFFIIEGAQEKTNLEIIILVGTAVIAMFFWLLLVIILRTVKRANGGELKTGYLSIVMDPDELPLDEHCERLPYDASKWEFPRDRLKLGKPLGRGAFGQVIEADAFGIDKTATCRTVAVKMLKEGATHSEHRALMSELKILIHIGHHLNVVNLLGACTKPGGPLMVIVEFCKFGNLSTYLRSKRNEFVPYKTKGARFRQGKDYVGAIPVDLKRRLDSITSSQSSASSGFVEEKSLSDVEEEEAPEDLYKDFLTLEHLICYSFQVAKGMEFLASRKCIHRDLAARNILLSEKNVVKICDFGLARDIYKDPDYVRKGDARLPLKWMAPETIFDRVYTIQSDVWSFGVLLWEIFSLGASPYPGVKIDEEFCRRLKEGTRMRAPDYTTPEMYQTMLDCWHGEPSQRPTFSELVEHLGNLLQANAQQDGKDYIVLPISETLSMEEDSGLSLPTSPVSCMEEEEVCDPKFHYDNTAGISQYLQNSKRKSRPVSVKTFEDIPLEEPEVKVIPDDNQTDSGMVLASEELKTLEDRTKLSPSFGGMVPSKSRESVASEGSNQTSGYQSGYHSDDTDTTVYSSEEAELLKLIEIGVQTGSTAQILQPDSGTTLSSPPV

[9] = 5-day PK with topical ocular Compound-I in cyclodextrin-based solutions (Example 6); assay type: in vivo; settings: HPβCD solutions, Dutch-Belted rabbits, q.d.; 24 hr after first daily dose on day 4 (Groups 5b, 6b); LLOQ 0.0218 μM
Protocol: All doses were administered with ±1 hour of the scheduled dose time, except on day 1 for Groups 1, 4, and 10. The first dose on day 1 was administered at 12:00 PM, and the second dose (for Groups 1 and 10) was administered approximately 4 hours after. This was due to delayed arrival of formulations. All other dosing for these groups was as scheduled. On day 1, Groups 4-8, and 11-12 received one dose (q.d.) for four (4) days. On days 1 through 4, Groups 1-3, and 9-10 received b.i.d. dosing approximately 8 hours apart for four (4) days.
Ocular sampling occurred one hour following the first daily dose on day 5 for all groups, except Groups 5b and 6b, where ocular sampling occurred 24 hours after the first daily dose on day 4.
Blood samples for plasma collection were obtained just prior to scheduled euthanasia for all animals. […] Cornea, central retina, and central choroid samples from groups 1-12 were assayed. Aqueous humor, peripheral retina, and peripheral choroid samples were not assayed.

## Cl.NC(=O)c1c(OCc2c(F)cc(Br)cc2F)nsc1NC(=O)NCCCCN1CCCC1 [Compound-I, 3-[(4-bromo-2,6-difluorophenyl)methoxy]-5-[[[[4-(1-pyrrolidinyl)butyl]amino]carbonyl]amino]-4-isothiazolecarboxamide hydrochloride]
[1]
  Inhibition of pathologic retinal and choroidal neovascularization: significant inhibition
[2]
  Compound-I dose strengths solubilised by cyclodextrin: 0.1-1.0%
Human tumor xenographs
  Inhibition of growth of human tumor xenographs: shown to inhibit
[3]; aqueous humor, 0.3% Tris-based suspensions with and without benzylalkonium chloride, twice daily, 1 hour after first daily dose on day 30, read-out: Mean ocular tissue concentration, aqueous humor
  concentration at 1 h: 1.27 to 1.45 nM
[3]; central choroid, 0.3 % w/v, 0.3% Tris Suspension, Twice Daily 30 days, read-out: Central Choroid [Compound I]
  concentration at 1 h: 319 nM
[3]; central choroid, 0.3% Tris-based suspensions with and without benzylalkonium chloride, twice daily, 1 hour after first daily dose on day 30, read-out: Mean ocular tissue concentration, central choroid
  concentration at 1 h: 303 to 319 nM
[3]; central retina, 0.3% Tris-based suspensions with and without benzylalkonium chloride, twice daily, 1 hour after first daily dose on day 30, read-out: Mean ocular tissue concentration, central retina
  concentration at 1 h: 49.5 to 59.2 nM
[3]; cornea, 0.3 % w/v, 0.3% Tris Suspension, Twice Daily 30 days, read-out: Cornea [Compound I]
  concentration at 1 h: 2690 nM
[3]; cornea, 0.3% Tris-based suspensions with and without benzylalkonium chloride, twice daily, 1 hour after first daily dose on day 30, read-out: Mean ocular tissue concentration, cornea
  concentration at 1 h: 2690 to 3100 nM
[3]; peripheral choroid, 0.3% Tris-based suspensions with and without benzylalkonium chloride, twice daily, 1 hour after first daily dose on day 30, read-out: Mean ocular tissue concentration, peripheral choroid
  concentration at 1 h: 781 to 1210 nM
[3]; peripheral retina, 0.3% Tris-based suspensions with and without benzylalkonium chloride, twice daily, 1 hour after first daily dose on day 30, read-out: Mean ocular tissue concentration, peripheral retina
  concentration at 1 h: 81.9 to 86.8 nM
FGFR-4; 10-point titration curve
  IC50, FGFR-4: (284.45) ng/mL
FGFR-4; 10-point titration curve (257 nM-5000 nM)
  IC50: 500 nM
[4]
  pKa: 10.5
[5]; 0.1N HCl, simulated gastric fluid
  solubility: 40 µg/mL
[5]; 0.1N NaOH, aqueous buffer
  solubility: 50 µg/mL
[5]; acetonitrile, organic solvent or mixture
  solubility: 40 µg/mL
[5]; aqueous buffer, pH 7.5 (0.05M NaH2PO4)
  solubility: 1000 µg/mL
[5]; aqueous buffer, pH 9.0 (0.05m Na2HPO4)
  solubility: 700 µg/mL
[5]; deionized water, water
  solubility: 500 to 1200 µg/mL
[5]; ethanol, organic solvent or mixture
  solubility: 700 µg/mL
[5]; hexanes, organic solvent or mixture
  solubility: < 10 µg/mL
[5]; methanol, organic solvent or mixture
  solubility: 4300 µg/mL
[5]; tetrahydrofuran, organic solvent or mixture
  solubility: 20 µg/mL
[6]; Dutch-belted
  Reduction of corneal exposure with suspension-based and cyclodextrin formulations: 10-100 ×
[6]
  Corneal concentrations with Gel Drop compared to Tris-based suspensions: fifty-fold to hundred-fold higher
  Corneal concentrations with Gel Drop compared to cyclodextrin based solution: five-fold to fifteen-fold higher
[7]
  Delivery of Compound-I to posterior segment tissues: dose-dependent and dose-frequency dependent
Pathologic angiogenesis
  Inhibition of pathologic angiogenesis: shown to inhibit
[8]; 0.3% w/v twice daily for 30 days
  Microscopic evaluation of eyes, Tris-based suspension: considered normal
[8]; Dutch-belted rabbits, topical ocular
  Findings attributed to test-article after 30 days of 0.6% cyclodextrin-based solution: no untoward findings
[8]; rabbit, in vivo
  Tolerability of HP-β-CD cyclodextrin-based solutions, 30 days: well tolerated
  Tolerability of Tris-based suspension formulations: well tolerated
  Tolerability of cyclodextrin-based solutions, 24 days: well-tolerated
[8]; rabbits, all test article treated groups
  Retinal function, full-field electroretinograms: normal
KDR (VEGFR-2)
  Mean % Inhibition at 300 nM Compound-I, KDR (VEGFR-2): completely inhibited
[9]
  Average Concentration, Central Retina: <LLOQ
